The record followed here is PubChem BioAssay AID248 (DTP/NCI, 2004).

The experiment deals with L1210 leukemia ip in BDF1 mice, survival T/C. The experiment in a line: NCI In Vivo Anticancer Drug Screen. Data for tumor model L1210 Leukemia (intraperitoneal) in B6D2F1 (BDF1) mice. Particulars: endpoint: mean survival time, higher = longer survival. In a few lines:
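In this screen, tumor-bearing mice given compound are compared to those given vehicle, and their survival values are reported as a treated-to-control quotient.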

[1] abbreviates: dose: 100.0 mg/kg/injection, schedule: Q04DX003 (ip), vehicle: saline with Tween-80.
The mark [2] stands for this setting: dose: 200.0 mg/kg/injection, schedule: Q04DX003 (ip), vehicle: saline with Tween-80.
Setting [3] is: dose: 400.0 mg/kg/injection, schedule: Q04DX003 (ip), vehicle: saline with Tween-80.
Where [4] appears, read: dose: 50.0 mg/kg/injection, schedule: Q01DX009 (ip), vehicle: Klucel (hydroxypropylcellulose) (HPC).
Where [5] appears, read: dose: 100.0 mg/kg/injection, schedule: Q01DX009 (ip), vehicle: Klucel (hydroxypropylcellulose) (HPC).
Where [6] appears, read: dose: 200.0 mg/kg/injection, schedule: Q01DX009 (ip), vehicle: Klucel (hydroxypropylcellulose) (HPC).
[7] abbreviates: dose: 100.0 mg/kg/injection, schedule: Q04DX003 (ip), vehicle: Klucel (hydroxypropylcellulose) (HPC).
The mark [8] stands for this setting: dose: 200.0 mg/kg/injection, schedule: Q04DX003 (ip), vehicle: Klucel (hydroxypropylcellulose) (HPC).
[9] abbreviates: dose: 5.0 mg/kg/injection, schedule: Q01DX009 (ip), vehicle: Klucel (hydroxypropylcellulose) (HPC).
The mark [10] stands for this setting: dose: 100.0 mg/kg/injection, schedule: Q01DX001 (ip), vehicle: Klucel (hydroxypropylcellulose) (HPC).
[11] abbreviates: dose: 100.0 mg/kg/injection, schedule: Q04DX003 (ip), vehicle: saline.
The mark [12] stands for this setting: dose: 200.0 mg/kg/injection, schedule: Q04DX003 (ip), vehicle: saline.
Setting [13] is: dose: 400.0 mg/kg/injection, schedule: Q04DX003 (ip), vehicle: Klucel (hydroxypropylcellulose) (HPC).

Molecules are shown by their SMILES. Values joined by “and” are separate entries in the source; they are usually repeats but may differ in a detail not shown here. Equal entries are not always repeated. Inconclusive results and toxic doses are left out.

Consider `CCSc1ccc2c(cc1=O)C(N)CCc1cc(OC)c(OC)c(OC)c1-2` (stereo not drawn), for which the T/C is 107 % of control (dose: 12.5 mg/kg/injection, schedule: Q04DX002 (ip), vehicle: saline); 95 % of control (dose: 25.0 mg/kg/injection, schedule: Q04DX002 (ip), vehicle: saline); 98 % of control (dose: 50.0 mg/kg/injection, schedule: Q04DX002 (ip), vehicle: saline).

Consider `CCCSCCCCSCCC`, for which the T/C (dose: 25.0 mg/kg/injection, schedule: Q04DX003 (ip), vehicle: saline with Tween-80) is 115 % of control; the T/C (dose: 50.0 mg/kg/injection, schedule: Q04DX003 (ip), vehicle: saline with Tween-80) was 104 % of control; the T/C (dose: 100.0 mg/kg/injection, schedule: Q01DX009 (ip), vehicle: saline with Tween-80) was 100 % of control; the T/C under setting [1] was 102 % of control; the T/C (dose: 200.0 mg/kg/injection, schedule: Q01DX009 (ip), vehicle: saline with Tween-80) was 109 % of control; the T/C under setting [2] is 92 % of control. Also, the T/C (dose: 400.0 mg/kg/injection, schedule: Q01DX009 (ip), vehicle: saline with Tween-80) was 91 % of control and the T/C under setting [3] was 95 % of control.

`CSc1nccnc1C`: the T/C under setting [4] was 119 % of control, the T/C under setting [5] is 96 % of control and the T/C under setting [6] was 105 % of control.

As for `CCOC(=O)c1ccc(OC(=O)Nc2ccc(Cl)c([N+](=O)[O-])c2)cc1`, the T/C runs as follows: under setting [4], 94 % of control; under setting [5], 90 % of control; under setting [7], 100 % of control; under setting [6], 92 % of control; under setting [8], 94 % of control.

For `Cc1nc2cc(Cl)cc([N+](=O)[O-])c2nc1C`, the T/C runs as follows: under setting [5], 91 % of control; under setting [6], 93 % of control; (dose: 400.0 mg/kg/injection, schedule: Q01DX009 (ip), vehicle: Klucel (hydroxypropylcellulose) (HPC)) 91 % of control.

As for `O=[N+]([O-])c1c(Br)sc(Br)c1[N+](=O)[O-]`, the T/C (dose: 2.5 mg/kg/injection, schedule: Q01DX009 (ip), vehicle: Klucel (hydroxypropylcellulose) (HPC)) was 88 % of control; the T/C (dose: 2.5 mg/kg/injection, schedule: Q04DX003 (ip), vehicle: Klucel (hydroxypropylcellulose) (HPC)) was 109 % of control; the T/C under setting [9] is 88 % of control; the T/C (dose: 5.0 mg/kg/injection, schedule: Q04DX003 (ip), vehicle: Klucel (hydroxypropylcellulose) (HPC)) was 101 % of control; the T/C (dose: 10.0 mg/kg/injection, schedule: Q01DX009 (ip), vehicle: Klucel (hydroxypropylcellulose) (HPC)) was 108 % of control; the T/C (dose: 10.0 mg/kg/injection, schedule: Q04DX003 (ip), vehicle: Klucel (hydroxypropylcellulose) (HPC)) was 96 % of control.

For the compound `O=C1C=C(C(c2ccccc2)c2ccccc2)C(=O)C=C1NS(=O)(=O)c1ccccc1`, the T/C was 106 % of control (dose: 25.0 mg/kg/injection, schedule: Q01DX001 (ip), vehicle: Klucel (hydroxypropylcellulose) (HPC)); 97 % of control (dose: 50.0 mg/kg/injection, schedule: Q01DX001 (ip), vehicle: Klucel (hydroxypropylcellulose) (HPC)); 95 % of control under setting [10].

With `COC1OC(COC(C)=O)C(OC(C)=O)C(OC(C)=O)[CH]1[Hg][O]C(C)=O` (stereo not drawn), the T/C by setting is: (dose: 6.25 mg/kg/injection, schedule: Q04DX003 (ip), vehicle: saline) 96 % of control; (dose: 12.5 mg/kg/injection, schedule: Q04DX003 (ip), vehicle: saline) 98 % of control; (dose: 25.0 mg/kg/injection, schedule: Q04DX003 (ip), vehicle: saline) 92 % of control.

For the compound `COCCN=C(N)C(N)=NCCOC`, the T/C was 102 % of control under setting [1]; 97 % of control under setting [11]; 102 % of control under setting [2]; 100 % of control under setting [12]; 95 % of control under setting [3]; 88 % of control (dose: 400.0 mg/kg/injection, schedule: Q04DX003 (ip), vehicle: saline).

As to `CCC1CC2CN3CCc4c([nH]c5ccccc45)C(C(=O)OC)(C2)C13` (stereo not drawn), the T/C (dose: 75.0 mg/kg/injection, schedule: Q01DX001 (ip), vehicle: other) is 96 % of control and the T/C (dose: 150.0 mg/kg/injection, schedule: Q01DX001 (ip), vehicle: other) is 105 % of control.

Turning to `COc1ccc(C(=O)CC(C)C(=O)O)c(O)c1C` (stereo not drawn), the T/C by setting is: under setting [7], 95 % of control; under setting [8], 98 % of control; under setting [13], 96 % of control.

As to `COC(OC)c1nc(N)nc(N)c1-c1ccc(F)cc1`, the T/C is 94 % of control under setting [1], 96 % of control under setting [2] and 96 % of control under setting [3].

Consider `CC(C)(C)C1=CC(=O)C=C(C(C)(C)C)C1=O`, for which the T/C by setting is: under setting [10], 89 % of control; (dose: 200.0 mg/kg/injection, schedule: Q01DX001 (ip), vehicle: Klucel (hydroxypropylcellulose) (HPC)) 92 % of control; under setting [8], 87 % of control; (dose: 400.0 mg/kg/injection, schedule: Q01DX001 (ip), vehicle: Klucel (hydroxypropylcellulose) (HPC)) 100 % of control; under setting [13], 89 % of control.

In the case of `O=NN(CS(=O)(=O)O)c1ccccc1`, the T/C by setting is: under setting [11], 98 % of control; under setting [12], 103 % of control.

Regarding `COc1ccc(Cl)cc1NC(=O)N(CCCl)N=O`, the T/C is 103 % of control (dose: 0.1 mg/kg/injection, schedule: Q01DX009 (ip), vehicle: carboxymethylcellulose (CMC)); 122 % of control (dose: 1.0 mg/kg/injection, schedule: Q01DX001 (ip), vehicle: carboxymethylcellulose (CMC)); 105 % of control (dose: 1.0 mg/kg/injection, schedule: Q01DX009 (ip), vehicle: Klucel (hydroxypropylcellulose) (HPC)); 117 % of control (dose: 2.0 mg/kg/injection, schedule: Q01DX001 (ip), vehicle: carboxymethylcellulose (CMC)); 117 % of control (dose: 2.12 mg/kg/injection, schedule: Q01DX001 (ip), vehicle: Klucel (hydroxypropylcellulose) (HPC)); 119 % of control (dose: 4.25 mg/kg/injection, schedule: Q01DX001 (ip), vehicle: Klucel (hydroxypropylcellulose) (HPC)). Further, the T/C by setting is: under setting [9], 105 % of control; (dose: 6.0 mg/kg/injection, schedule: Q01DX009 (ip), vehicle: carboxymethylcellulose (CMC)) 153 % of control; (dose: 8.8 mg/kg/injection, schedule: Q01DX009 (ip), vehicle: carboxymethylcellulose (CMC)) 166 % of control; (dose: 15.0 mg/kg/injection, schedule: Q01DX001 (ip), vehicle: carboxymethylcellulose (CMC)) 151 % of control; (dose: 17.0 mg/kg/injection, schedule: Q01DX001 (ip), vehicle: Klucel (hydroxypropylcellulose) (HPC)) 158 % of control; (dose: 17.0 mg/kg/injection, schedule: Q01DX009 (ip), vehicle: Klucel (hydroxypropylcellulose) (HPC)) 174 % of control. The T/C is, setting by setting: (dose: 20.0 mg/kg/injection, schedule: Q01DX009 (ip), vehicle: carboxymethylcellulose (CMC)) 100 % of control; (dose: 26.0 mg/kg/injection, schedule: Q01DX001 (ip), vehicle: carboxymethylcellulose (CMC)) 151 % of control and 196 % of control; (dose: 26.0 mg/kg/injection, schedule: Q01DX009 (ip), vehicle: Klucel (hydroxypropylcellulose) (HPC)) 87 % of control; (dose: 30.0 mg/kg/injection, schedule: Q01DX001 (ip), vehicle: carboxymethylcellulose (CMC)) 151 % of control; (dose: 30.0 mg/kg/injection, schedule: Q01DX009 (ip), vehicle: carboxymethylcellulose (CMC)) 98 % of control; (dose: 40.0 mg/kg/injection, schedule: Q01DX001 (ip), vehicle: carboxymethylcellulose (CMC)) 93 % of control. In addition, the T/C (dose: 75.0 mg/kg/injection, schedule: Q01DX001 (ip), vehicle: carboxymethylcellulose (CMC)) is 95 % of control.

In the case of `CCCNC(=O)NO`, the T/C reads like this: (dose: 100.0 mg/kg/injection, schedule: Q01DX001 (ip), vehicle: carboxymethylcellulose (CMC)) 103 % of control; (dose: 150.0 mg/kg/injection, schedule: Q01DX009 (ip), vehicle: other) 105 % of control; (dose: 200.0 mg/kg/injection, schedule: Q01DX001 (ip), vehicle: carboxymethylcellulose (CMC)) 100 % of control; (dose: 400.0 mg/kg/injection, schedule: Q01DX001 (ip), vehicle: carboxymethylcellulose (CMC)) 105 % of control.
